Experimental data as given in patent US20230118497A1, “PYRAZOLE-CONTAINING POLYCYCLIC DERIVATIVE INHIBITOR, PREPARATION METHOD THEREFOR AND APPLICATION THEREOF” (Shanghai Hansoh Biomedical Co., Ltd., priority 2019, published 2023).

Tests used:
BALB/c mice = assay: Taste sensitivity assay in BALB/c mice (quinine solution intake); assay type: in vivo; conditions: 30 mpk; for Solution consumption of single mouse, Quinine solution: 3 mmol/L quinine hydrochloride, 30 min; for Dysgeusia rate: quinine solution vs solvent groups (20% HP-B-CD)
Procedure: Test Example 9. Taste Sensitivity Assay in BALB/c Mice
In this assay, compounds with less toxic and side effects on animal taste were screened by quinine bitter solution experiment.
BALB/c mice, 6 to 8 weeks old, ♂, purchased from Shanghai SIPPR-BK Laboratory Animal Co., Ltd.
BALB/c mice were randomly grouped according to body weight, and were deprived of water 12 to 16 hours before administration with no fasting.
An appropriate amount of quinine monohydrochloride dihydrate was weighed and formulated into an aqueous solution quinine hydrochloride (concentration: 3 mmol/L) with ultrapure water for later use.
An appropriate amount of the test compound was weighed and formulated into the target concentration with the corresponding solvent according to the experimental design for later use.
Administration and fasting: On the day of the experiment, the animals were weighed and fasted, bedding was changed, and the compounds were administered according to the experimental design.
1. The corresponding clean mouse drinking bottle was rinsed 2 to 3 times with ultrapure water and the formulated 3 mmol/L aqueous solution of quinine hydrochloriderespectively. The bottle was filled and weighed, and the weight was recorded as Wi0.
2. According to the experimental design, a certain period after administration, the filled bottle was gently placed in the corresponding mouse cage, and the timing was started. After 30 min, the bottle was gently taken out and weighed, and the weight was recorded as Wi30.
3. Calculation of solution consumption of animals in each group: ΔWW(g)=[…]; calculation of solution consumption of single mouse: ΔpWW(g)=ΔWW/N, N is the number of animals in each group.
4. Dysgeusia rate=(ΔpWW of the group in which the drinking water was the aqueous solution of quinine hydrochlorideand the test compound was administered at the same time −ΔpWW of the group in which the drinking water was aqueous solution of quinine hydrochlorideand the solvent control was administered at the same time)/(ΔpWW of the group in which the drinking water was ultrapure water and the solvent control was administered at the same time −ΔpWW of the group in which the drinking water was aqueous solution of quinine hydrochloride and the solvent control was administered at the same time)×100%. Data processing was performed with software such as Excel.

[1] = Plasma protein binding rate (mouse); assay type: in vitro ADME; conditions: 37° C. 6 h
Procedure: Test Example 6. Assay of Plasma Protein Binding Rate
The objective of the experiment is to determine the plasma protein binding of the compounds of the Examples in plasma.
The compound of the Example was formulated into 1 mM solution A with DMSO;
The solution A was added to the plasma solution to obtain 5 μM solution B;
1) 200 μL of solution B was added to the inside of the membrane;
2) […] of PBS was added to the outside of the membrane;
3) Incubation in a water bath at 37° C. for 6 h;
4) The sample was diluted and analyzed by mass spectrometry.

[2] = Pharmacokinetic assay in Balb/C mice; assay type: in vivo; conditions: male, mouse, po, p.o. 5 mg/kg, plasma, 0.5% CMC-Na (1% Tween 80); for AUC(0-t): read-out: Area under curve AUC0-t; for MRT inf: read-out: Average residence time MRT0-∞; for half-life: read-out: Half life t1/2 (converted); for Tmax: read-out: Peak time tmax; for Cmax: read-out: Plasma concentration Cmax
Procedure: Test Example 3. Pharmacokinetic Assay in Balb/C Mice
Balb/C mice were used as test animals. The pharmacokinetic behavior of the compounds of Examples was studied in mouse body (plasma) by orally administration at a dose of 5 mg/kg.
Male Balb/C mice (6 mice per group), purchased from Shanghai Jiesijie Laboratory Animal Co., LTD, with Certificate No.: SCXK (Shanghai) 2013-0006 N0.311620400001794.
5 g of hydroxyethyl cellulose (HEC, CMC-Na, viscosity: 800-1200 Cps) was weighed and dissolved in 1000 mL of purified water, followed by addition of 10 g of Tween80.
After an overnight fast, male Balb/C mice were administered p.o. with the test compound at a dose of 5 mg/kg and a volume of 10 mL/kg.
0.04 mL of blood was taken from the orbit of the mouse before administration and at 0, 0.5, 1, 2, 4, 6, 8 and 24 hours after administration. The samples were stored in EDTA-K2 tubes, and centrifuged for 6 minutes at 4° C., 6000 rpm to separate the plasma. The plasma samples were stored at −80° C.
1) 160 μL of acetonitrile was added to 20 μL of the plasma sample for precipitation, and then the mixture was centrifuged at 3500×g for 5 to 20 minutes. 2) After the above process, 100 μL of the supernatant was taken to analyze the concentration of the test compound by LC/MS/MS.
2.7 Liquid Chromatography Analysis • Liquid chromatography condition: Shimadzu LC-20AD pump • Mass spectrometry condition: AB Sciex API 4000 mass spectrometer • Chromatographic column: phenomenex Gemiu 5 um C18 50×4.6 mm • Mobile phase: Eluent A was 0.1% formic acid in water, and Eluent B was acetonitrile • Flow rate: 0.8 mL/min • Elution time: 0-4.0 minutes the eluent is as follows:
The main parameters of pharmacokinetics were calculated by WinNonlin 8.2.

SMILES	Solution consumption of single mouse, Quinine solution (BALB/c mice) [g]	Dysgeusia rate (BALB/c mice) [%]	fraction unbound at 6 h, 5 μM [1]	AUC(0-t) [2] [ng·h/mL]	MRT inf [2] [h]	half-life [2] [h]	Tmax [2] [h]	Cmax [2] [ng/mL]
O=C(Cn1c(=O)c2ccc(C(F)(F)F)nc2n2nccc12)Nc1ccc(F)cn1 [Example 78, N-(5-Fluoropyridin-2-yl)-2-(5-oxo-8-(trifluoromethyl)pyrazolo[1,5-a]pyrido[3,2-e]pyrimidin-4(5H)-yl)acetamide]	0.016	−9.81	0.084	5040	2.5	1.6	1	1290
O=C(Cn1c(=O)c2ccc(C(F)(F)F)nc2n2nc(Br)cc12)Nc1ccc(F)cn1 [Example 61-A, 2-(2-bromo-5-oxo-8-(trifluoromethyl)pyrazolo[1,5-a]pyrido[3,2-e]pyrimidin-4(5H)-yl)-N-(5-fluoropyridin-2-yl)acetamide]	0.048	−3.77	0.044	30500	5.6	4.6	2	3430
CCc1cc2n(CC(=O)Nc3ccc(F)cn3)c(=O)c3ccc(C(F)(F)F)nc3n2n1 [Example 34, 2-(2-Ethyl-5-oxo-8-(trifluoromethyl)pyrazolo[1,5-a]pyrido[3,2-e]pyrimidin-4(5H)-yl)-N-(5-fluoropyridin-2-yl)acetamide]			0.043	7580	2.3	1.4	1	2360
N#Cc1cnn2c3nc(C(F)(F)F)ccc3c(=O)n(CC(=O)Nc3ccc(F)cn3)c12 [Example 80, 2-(3-Cyano-5-oxo-8-(trifluoromethyl)pyrazolo[1,5-a]pyrido[3,2-e]pyrimidin-4(5H)-yl)-N-(5-fluoropyridin-2-yl)acetamide]			0.256					
N#Cc1cc2n(CC(=O)Nc3ccc(F)cn3)c(=O)c3ccc(C(F)(F)F)nc3n2n1 [Example 68, 2-(2-Cyano-5-oxo-8-(trifluoromethyl)pyrazolo[1,5-a]pyrido[3,2-e]pyrimidin-4(5H)-yl)-N-(5-fluoropyridin-2-yl)acetamide]	0.056	−2.26	0.162	10200	3.8	1.8	2	1830
